Reference: US20260337156A1, “SOLUBILIZING COMPOUNDS” (Vivesto AB, priority 2022, published 2026)
Blank lines part the entries; values can stand above or below the compound they belong to.

Legend:
Type in all cases: physicochemical
[1] = micellar particle size and polydispersity index (ZetaSizer, dynamic light scattering) of drug formulations at different dilutions; conditions: micelles with docetaxel
Protocol: The particle size of the micelles in the composition is typically in the range of about 5 to about 150 nm. The particle size may be determined e.g. using Dynamic Light Scattering (DLS) in 0.9% NaCl at 1 mg/mL drug concentration, preferably using a red laser with a wavelength of 633 nm.
Micellar size was measured using a ZetaSizer from Malvern Panalytical. […]
20 mg of example 1 was dispensed into a 25 mL round bottom flask and dissolved in methanol (3 mL). 800 μL of a stock solution of docetaxel in methanol (5 mg/mL) was added. The solution was evaporated to dryness in a rotary evaporator. Final drying was performed in a desiccator to remove residual solvent. Hydration of the dried film was performed by adding water for injection (1.0 mL) to a concentration of 4 mg/mL of docetaxel. The 4 mg/mL concentration was further diluted with 0.9% sodium chloride according to the table below. […]
(§1) A serial dilution was performed for the system docetaxel:compound 1. A stock solution of docetaxel in methanol was mixed with a stock solution of the micelle forming agent (compound 1) in a round bottom flask at a weight ratio of 1:5. The mixture was evaporated to dryness in a rotary evaporator. Final drying was performed in a desiccator to remove residual solvent. Hydration of the dried film was performed by adding water for injection (1.0 mL) to a concentration of 1 mg/mL of docetaxel. The resulting solution was filtered through a 0.22 μm sterile filter and further diluted with 0.9% sodium chloride solution.
(§2) 4.5 mg of compound 1 was dispensed into a 25 mL round bottom flask and dissolved in methanol (2 mL). 1500 μL of a stock solution of cabazitaxel in methanol (1.00 mg/mL) was added. The solution was evaporated to dryness in a rotary evaporator. Final drying was performed in a desiccator to remove residual solvent. […]

[2] = particle size and polydispersity index of drug micelles over time (ZetaSizer); conditions: docetaxel:compound 1:5, docetaxel 0.5 mg/mL
Protocol: Micellar size was measured using a ZetaSizer from Malvern Panalytical.
as §1, with “A” for “A serial dilution was performed for the system docetaxel:compound 1. A”, “compound 1” for “the micelle forming agent (compound 1)”, “flask.” for “flask at a weight ratio of 1:5.”, “solution to 0.5 mg/mL of docetaxel. […]” for “solution.”
(§3) A stock solution of cyclosporin in methanol was mixed with a stock solution of compound 1 in a round bottom flask. The mixture was evaporated to dryness in a rotary evaporator. Final drying was performed in a desiccator to remove residual solvent. Hydration of the dried film was performed by adding water for injection (1.0 mL) to a concentration of 1 mg/mL of cyclosporin. The resulting solution was filtered through a 0.22 μm sterile filter and further diluted with 0.9% sodium chloride solution to 0.5 mg/mL of cyclosporin. The final weight ratio of cyclosporin to micelle forming agent was 1:3.
(§4) A stock solution of docetaxel in methanol was mixed with a stock solution of compound 3 in a round bottom flask. The mixture was evaporated to dryness in a rotary evaporator. Final drying was performed in a desiccator to remove residual solvent. Hydration of the dried film was performed by adding water for injection (1.0 mL) to a concentration of 1 mg/mL of docetaxel. The resulting solution was filtered through a 0.22 μm sterile filter and further diluted with 0.9% sodium chloride solution to 0.5 mg/mL of Docetaxel. The final weight ratio of docetaxel to micelle forming agent was 1:3.
as §3, with “compound 3” for “compound 1”
as §4, with “4” for “3”, “docetaxel. […]” for “Docetaxel. The final weight ratio of docetaxel to micelle forming agent was 1:3.”
as §4, with “compound 5” for “compound 3”, “of docetaxel.” for “of Docetaxel.”
A stock solution of cabazitaxel in methanol was mixed with a stock solution of compound 5 in a round bottom flask. The mixture was evaporated to dryness in a rotary evaporator. Final drying was performed in a desiccator to remove residual solvent. Hydration of the dried film was performed by adding water for injection (1.0 mL) to a concentration of 1 mg/mL of cabazitaxel. […]

[3] = appearance of the hydrated drug formulation; conditions: formulation with docetaxel
Protocol: 3.8 mg of compound 1 was dispensed into a 25 mL round bottom flask and dissolved in methanol (2 mL). 240 μL of a stock solution of docetaxel in methanol (5 mg/mL) was added.
(§5) The solution was evaporated to dryness in a rotary evaporator. Final drying was performed in a desiccator to remove residual solvent. Hydration of the dried film was performed by adding water for injection (1.2 mL). […] Drug loading capacity is defined as the ratio of amount API:(API+excipient).
(§6) 11 mg of example 1 was dispensed into a 25 mL round bottom flask and dissolved in methanol (2 mL). 740 μL of a stock solution of docetaxel in methanol (4.96 mg/mL) was added. The solution was evaporated to dryness in a rotary evaporator. Final drying was performed in a desiccator to remove residual solvent.
(§7) 4.5 mg of compound 1 was dispensed into a 25 mL round bottom flask and dissolved in methanol (2 mL). 1500 μL of a stock solution of cabazitaxel in methanol (1.00 mg/mL) was added. The solution was evaporated to dryness in a rotary evaporator. Final drying was performed in a desiccator to remove residual solvent.
as §2, with “cyclosporin” for “cabazitaxel”
4.5 mg of compound 4 was dispensed into a round bottom flask and dissolved in methanol (3 mL). […] of a stock solution of docetaxel in methanol (4.96 mg/mL) was added. The solution was evaporated to dryness in a rotary evaporator. Final drying was performed in a desiccator (40 min) to remove residual solvent. Rehydration of the dried film was performed by adding 0.9% sodium chloride solution (1.5 mL).

[4] = drug loading capacity (ratio of amount API:(API+excipient)); conditions: docetaxel 1.25 mg + compound 4.0 mg
Protocol: as §5
20 mg of example 1 was dispensed into a 25 mL round bottom flask and dissolved in methanol (3 mL). 800 μL of a stock solution of docetaxel in methanol (5 mg/mL) was added. The solution was evaporated to dryness in a rotary evaporator. Final drying was performed in a desiccator to remove residual solvent. Hydration of the dried film was performed by adding water for injection (1.0 mL) to a concentration of 4 mg/mL of docetaxel. The 4 mg/mL concentration was further diluted with 0.9% sodium chloride according to the table below.
as §6, §7
as §7, with “cyclosporin” for “cabazitaxel”
4.0 mg of compound 2 was dispensed into a 25 mL round bottom flask and dissolved in methanol (3 mL). 250 μL of a stock solution of docetaxel in methanol (5 mg/mL) was added. The solution was evaporated to dryness in a rotary evaporator. Final drying was performed in a desiccator to remove residual solvent. Hydration of the dried film was performed by adding water for injection (1.25 mL). […]
as §6, with “4.5” for “11”, “compound 3” for “example 1”, “(3” for “(2”, “305” for “740”
as §6, with “4.5” for “11”, “compound 3” for “example 1”, “(3” for “(2”, “[…]” for “740”

[5] = ratio 3:1, 0.9% NaCl, docetaxel conc. 0.25 mg/mL
[6] = ratio 3:1, 0.9% NaCl, docetaxel conc. 0.5 mg/mL
[7] = ratio 3:1, 0.9% NaCl, docetaxel conc. 1 mg/mL
[8] = 1.25 mg docetaxel + 4.0 mg compound, water 1.25 mL, mixed 1:1 v/v with 0.9% NaCl

Particle size [1, 5]: 8.7 nm
Polydispersity index [1, 5]: 0.31
Particle size [1, 6]: 8.9 nm
Polydispersity index [1, 6]: 0.25
Particle size [1, 7]: 8.9 nm
Polydispersity index [1, 7]: 0.32
Particle size ([2]; time 0 h): 34.56 nm
Polydispersity index ([2]; time 0 h): 0.26
Particle size ([2]; time 1 h): 54.37 nm
Polydispersity index ([2]; time 1 h): 0.14
Particle size ([2]; time 2 h): 56.46 nm
Polydispersity index ([2]; time 2 h): 0.12
Particle size ([2]; time 4 h): 58.90 nm
Polydispersity index ([2]; time 4 h): 0.11
Particle size ([2]; time 6 h): 59.79 nm
Polydispersity index ([2]; time 6 h): 0.12
Particle size ([2]; time 24 h): 78.72 nm
Polydispersity index ([2]; time 24 h): 0.08
appearance of formulation [3]: yellow transparent solution
Compound: COc1cc(C)c(/C=C/C(C)=C/C=C/C(C)=C/C(=O)N(CC(O)CS(=O)(=O)[O-])C2CCCCC2)c(C)c1C.[Na+] (stereo not drawn) [Compound 4]
change of particle size and polydispersity index over time ([2]; 0-24 h): Increase in the particle size and variations of the polydispersity index over time were noted

Particle size [1, 8]: 17.9 nm
Polydispersity index [1, 8]: 0.72
Drug loading capacity [4]: 24%
appearance of formulation [3]: yellow transparent solution
Compound: COc1cc(C)c(/C=C/C(C)=C/C=C/C(C)=C/C(=O)N(CCCS(=O)(=O)[O-])C2CCCCC2)c(C)c1C.[Na+] [Compound 2]
